Data reported in patent US9017673B2, “Peptide analogues comprising at least one type of aminoacylaza-$g(b)3and the use thereof, in particular for therapy” (Centre National de la Recherche Scientifique, priority 2003, dated 2015).
Entries after “also recorded” stand apart in the source; their conditions may differ. Square brackets hold non-standard residues; d marks the D form. NαhTyr = N-alpha-homo tyrosine (backbone-modified residue); NαhAla = N-alpha-homo alanine (backbone-modified residue); NαhLeu = N-alpha-homo leucine (backbone-modified residue); NαhLys = N-alpha-homo lysine (backbone-modified residue)

Columns and labels:
[1] = system: T lymphocytes of BALB/c mice immunized with the parent peptide 88-99H4; test: T lymphocyte proliferation (tritiated thymidine) of mice immunized with parent peptide 88-99H4, restimulated in culture with parent peptide or analogues; type: cell-based; settings: mice immunized with parent 88-99H4; for index of stimulation (IS) relative to the wells without peptide: restimulation peptide 90 μM (printed "to 90 μM"), FIG. 1; for index of stimulation (IS): restimulation peptide 100 μM (printed "to 100 μM"), FIG. 4; for activity compared with that of the parent peptide 88-99: T cell restimulation
Description: BALB/c mice were immunized with the parent peptide 88-99H4 and in cell cultures the T lymphocytes of these mice were restimulated with the same peptide or with the analogues A-E. The cell proliferation was measured by the incorporation of tritiated thymidine and the index of stimulation (1S) relative to the wells without peptide was calculated. The tests are performed in triplicate and the experiment is performed several times in independent experiments.
The same experiments were performed with peptide G, (corresponding to the sequence SEQ ID NO: 7).
(§1) FIG. 1: Response tests on the T lymphocytes of BALB/c mice injected with the parent peptide 88-99 of the histone H4 subcutaneously with Freund's adjuvant, and stimulation ex-vivo with the parent peptide or the analogue E; the stimulation index is shown on the y-axis and the different concentrations of peptide are shown on the x-axis.
as §1, with “4:” for “1:”, “G;” for “E;”

[2] = system: T lymphocytes of BALB/c mice injected with the modified peptide 88-99 of the histone H4; test: Mirror test: T lymphocytes of mice injected with the modified 88-99 H4 peptides, stimulated ex vivo with the analogue and the parent peptide 88-99; type: in vivo; settings: for immunogenicity (induces responses against the homologous peptide): mice injected with the analogue subcutaneously with Freund's adjuvant; for cross reaction of the generated T cells with the parent peptide 88-99: mice injected with the analogue, ex vivo stimulation with parent peptide 88-99
Description: In addition, a mirror manipulation of the foregoing was performed, namely response tests on the T lymphocytes of mice injected with the modified peptides and stimulation ex vivo with the parent peptide (88-99). After injection of the analogues, analyses were performed on cell cultures with the said analogues and the parent peptide 88-99. The following results are observed:
In addition, a mirror experiment of the foregoing was performed, namely an experiment on mice injected with the peptide G and stimulation ex vivo with increasing quantities of the parent peptide (88-99).
FIG. 2: Response tests on the T lymphocytes of BALB/c mice injected with the modified peptide 88-99 A or with the modified peptide 88-99 D of the histone H4 subcutaneously with Freund's adjuvant. The stimulation index is shown on the y-axis and the different concentrations of peptide are shown on the x-axis.
FIG. 3: Response tests on the T lymphocytes of BALB/c mice injected with the modified peptide 88-99 E of the histone H4 subcutaneously with Freund's adjuvant. The stimulation index is shown on the y-axis and the different concentrations of peptide are shown on the x-axis.
FIG. 5: Response tests on the T lymphocytes of BALB/c mice injected with the modified peptide 88-99 G of the histone H4 subcutaneously with Freund's adjuvant. The stimulation index is shown on the y-axis and the different concentrations of peptide are shown on the x-axis.

| Substance | index of stimulation (IS) relative to the wells without peptide [1] | index of stimulation (IS) [1] | immunogenicity (induces responses against the homologous peptide) [2] | cross reaction of the generated T cells with the parent peptide 88-99 [2] | activity compared with that of the parent peptide 88-99 [1] |
| --- | --- | --- | --- | --- | --- |
| H-Tyr-Ala-Leu-Lys-Arg-Gln-Gly-Arg-Thr-Leu-Tyr-Gly-OH (H-YALKRQGRTLYG-OH; listed as Homo sapiens) [parent peptide 88-99H4, reference compound] | 6.7 | 16.9 | – | – | – |
| ^88H2N-Tyr-Ala-Leu-Lys-Arg-Gln-Gly-Arg-Thr-Nα-hLeu-Nα-hTyr-Gly-OH^99 (H-YALKRQGRT[NαhLeu][NαhTyr]G-OH; also: Nα-homo leucine and tyrosine residues) [peptide G] | – | 16.6 | immunogenic | react by cross reaction with the homologous peptide G and in particular with the parent peptide with the same intensity | analogous |
| ^88H2N-Tyr-Ala-Leu-Lys-Arg-Gln-Gly-Arg-Thr-Nα-hLeu-Tyr-Gly-OH^99 (H-YALKRQGRT[NαhLeu]YG-OH; also: Nα-homo leucine residue) [peptide E] | 7.7 | – | immunogenic | react by cross reaction with the parent peptide; also recorded: cross reacts perfectly | analogous, or even superior depending on the experiments |
| ^88H2N-Tyr-Ala-Leu-Nα-hLys-Arg-Gln-Gly-Arg-Thr-Leu-Tyr-Gly-OH^99 (H-YAL[NαhLys]RQGRTLYG-OH; also: Nα-homo amino acid residue) [peptide D] | – | – | immunogenic | no cross reaction with the parent peptide | – |
| ^88H2N-Tyr-Nα-hAla-Leu-Lys-Arg-Gln-Gly-Arg-Thr-Leu-Tyr-Gly-OH^99 (H-Y[NαhAla]LKRQGRTLYG-OH; also: Nα-homo amino acid residue) [peptide A] | – | – | immunogenic | no cross reaction with the parent peptide | – |
